Reference: paper doi:10.1101/2021.09.30.462664v1 (biorxiv, 2021)
Positions count from the first letter of the chain named. pEC50: −log10 of the molar value.

Legend:
Assay in all cases: whole-cell patch clamp, V0.[…] shift, Hill fit
Type in all cases: cell-based
[1] = molecular target: KCNQ2/3 channel (KCNQ2/3 heteromers) (Homo sapiens, UniProt O43525+O43526)
[2] = molecular target: T1, KCNQ3 (homomer; KCNQ3T = KCNQ3-A315T) (Homo sapiens, UniProt O43525, A315T)
T1 sequence (O43525 1-872 A315T): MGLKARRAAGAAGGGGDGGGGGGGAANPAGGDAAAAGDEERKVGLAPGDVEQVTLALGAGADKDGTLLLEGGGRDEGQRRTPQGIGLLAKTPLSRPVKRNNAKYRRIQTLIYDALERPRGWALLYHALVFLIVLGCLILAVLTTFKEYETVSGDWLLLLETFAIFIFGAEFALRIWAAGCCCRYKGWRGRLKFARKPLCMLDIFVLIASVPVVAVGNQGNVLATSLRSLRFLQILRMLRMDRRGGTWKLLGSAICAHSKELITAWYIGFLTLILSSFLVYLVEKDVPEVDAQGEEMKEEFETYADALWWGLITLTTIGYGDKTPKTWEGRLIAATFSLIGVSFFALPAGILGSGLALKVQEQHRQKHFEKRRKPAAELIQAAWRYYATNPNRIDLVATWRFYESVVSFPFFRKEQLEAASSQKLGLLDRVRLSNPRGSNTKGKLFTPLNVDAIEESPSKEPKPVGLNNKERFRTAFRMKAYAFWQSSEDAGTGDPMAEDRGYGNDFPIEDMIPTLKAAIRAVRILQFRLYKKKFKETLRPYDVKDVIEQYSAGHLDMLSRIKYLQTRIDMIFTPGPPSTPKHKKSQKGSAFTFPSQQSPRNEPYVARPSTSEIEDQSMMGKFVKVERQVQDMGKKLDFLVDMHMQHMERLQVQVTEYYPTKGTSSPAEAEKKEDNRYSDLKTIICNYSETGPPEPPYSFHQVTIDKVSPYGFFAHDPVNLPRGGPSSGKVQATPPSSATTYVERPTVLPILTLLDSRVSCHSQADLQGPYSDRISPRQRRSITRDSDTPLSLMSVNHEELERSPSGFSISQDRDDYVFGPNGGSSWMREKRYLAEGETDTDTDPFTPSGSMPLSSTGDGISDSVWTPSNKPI

[3] = molecular target: T2, KCNQ3 (homomer; KCNQ3T = KCNQ3-A315T) (Homo sapiens, UniProt O43525, A315T/F167A)
T2 sequence (O43525 1-872 F167A/A315T): T1 sequence (O43525 1-872 A315T) with F167A

[4] = molecular target: T3, KCNQ3 (homomer; KCNQ3T = KCNQ3-A315T) (Homo sapiens, UniProt O43525, A315T/S209A)
T3 sequence (O43525 1-872 S209A/A315T): T1 sequence (O43525 1-872 A315T) with S209A

Sequence of KCNQ2/3 channel (KCNQ2/3 heteromers) (O43525 whole entry): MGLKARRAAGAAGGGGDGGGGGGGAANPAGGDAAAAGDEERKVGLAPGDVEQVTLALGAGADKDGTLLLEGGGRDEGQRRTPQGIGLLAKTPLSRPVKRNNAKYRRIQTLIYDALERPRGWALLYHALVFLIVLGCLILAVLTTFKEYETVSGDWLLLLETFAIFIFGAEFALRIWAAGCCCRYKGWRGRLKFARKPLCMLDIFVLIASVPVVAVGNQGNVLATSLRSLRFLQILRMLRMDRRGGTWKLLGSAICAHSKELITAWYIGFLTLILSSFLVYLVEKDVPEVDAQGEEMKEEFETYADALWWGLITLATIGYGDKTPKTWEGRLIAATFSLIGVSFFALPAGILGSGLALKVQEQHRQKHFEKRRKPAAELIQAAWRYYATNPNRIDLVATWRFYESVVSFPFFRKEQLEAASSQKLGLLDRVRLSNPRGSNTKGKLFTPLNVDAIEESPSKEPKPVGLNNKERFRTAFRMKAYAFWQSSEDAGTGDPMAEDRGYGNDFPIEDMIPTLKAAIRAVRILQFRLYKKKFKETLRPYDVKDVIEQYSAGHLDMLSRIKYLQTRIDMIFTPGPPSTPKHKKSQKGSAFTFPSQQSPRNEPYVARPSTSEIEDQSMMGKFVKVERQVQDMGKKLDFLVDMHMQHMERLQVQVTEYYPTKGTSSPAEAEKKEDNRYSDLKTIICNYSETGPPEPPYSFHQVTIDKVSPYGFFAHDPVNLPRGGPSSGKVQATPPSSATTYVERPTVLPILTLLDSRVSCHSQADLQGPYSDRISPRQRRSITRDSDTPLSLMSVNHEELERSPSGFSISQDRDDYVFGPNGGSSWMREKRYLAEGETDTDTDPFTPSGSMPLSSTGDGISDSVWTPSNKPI
Sequence of KCNQ2/3 channel (KCNQ2/3 heteromers) (O43526 whole entry): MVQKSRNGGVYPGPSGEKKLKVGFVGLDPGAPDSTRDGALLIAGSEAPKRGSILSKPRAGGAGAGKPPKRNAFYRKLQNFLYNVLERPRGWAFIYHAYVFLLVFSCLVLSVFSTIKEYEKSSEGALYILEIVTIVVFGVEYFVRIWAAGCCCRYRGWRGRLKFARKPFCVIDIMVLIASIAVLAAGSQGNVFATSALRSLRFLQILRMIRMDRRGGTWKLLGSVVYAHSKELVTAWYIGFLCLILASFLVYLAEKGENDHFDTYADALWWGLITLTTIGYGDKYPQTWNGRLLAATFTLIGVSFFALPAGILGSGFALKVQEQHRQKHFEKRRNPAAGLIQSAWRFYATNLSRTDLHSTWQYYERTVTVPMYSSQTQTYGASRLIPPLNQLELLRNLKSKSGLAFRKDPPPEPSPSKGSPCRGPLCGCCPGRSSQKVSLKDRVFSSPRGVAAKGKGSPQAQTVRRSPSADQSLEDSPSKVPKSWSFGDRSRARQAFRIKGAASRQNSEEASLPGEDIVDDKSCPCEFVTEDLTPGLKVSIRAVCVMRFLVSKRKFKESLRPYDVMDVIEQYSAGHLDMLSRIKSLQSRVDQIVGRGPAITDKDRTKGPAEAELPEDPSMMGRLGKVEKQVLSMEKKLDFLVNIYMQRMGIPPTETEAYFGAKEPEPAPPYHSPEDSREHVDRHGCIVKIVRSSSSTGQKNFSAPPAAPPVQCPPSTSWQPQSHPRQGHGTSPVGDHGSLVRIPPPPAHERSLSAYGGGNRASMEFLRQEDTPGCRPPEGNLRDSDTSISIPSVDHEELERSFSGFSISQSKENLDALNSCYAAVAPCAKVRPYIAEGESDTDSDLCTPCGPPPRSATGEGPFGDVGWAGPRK

CCOC(=O)Nc1ccc(NCc2ccc(F)cc2)cc1N [retigabine]
pEC50 [1]: 5.44

Oc1cc(Cl)ccc1Oc1ccc(Cl)cc1Cl [triclosan]
pEC50 [2]: 4.42 | pEC50 [3]: 4.38 | pEC50 [1]: 4.49 | pEC50 [4]: 4.34
